Source: US20060046992A1, “HETEROBICYCLIC COMPOUNDS” (priority 2002, published 2006)

How the values were obtained:
MIN6 cell [1] = test: Insulin secretion promoting activity for cultured β-cells, in the presence of 14.5 mmol/L glucose; assay type: cell-based; conditions: none: 148.4
Method: (§1) Further, the insulin secretion of the MIN6 cell is prompted in response to sulfonylurea-agents such as glibenclamide, which are used as a medicament for treatment of diabetes (Cellular Signalling, vol. 5, p. 777-786, 1993).
Culture of the MIN6 cells above and insulin secretion test utilizing the MIN6 cells were performed according to the methods described in Diabetologia, vol. 36, p. 1139-1145, 1993. The effect of a compound on the insulin secretion in the presence of 14.5 mmol/L glucose was determined by measuring insulin amounts in cell culture supernatants collected as follows. MIN6 cells cultured on a 24-well plate were washed twice by using 1 mL of Buffer A (119 mmol/L sodium chloride, 4.74 mmol/L potassium chloride, 2.54 mmol/L calcium chloride, 1.19 mmol/L magnesium sulfate, 1.19 mmol/L potassium dihydrogenphosphate, 10 mmol/L 2-[4-(2-hydroxyethyl)-1-piperazinyl]ethanesulfonic acid, and 0.1% bovine serum albumin, pH 7.3) containing 2 mmol/L glucose, and then were incubated in 1 mL of Buffer A containing 2 mmol/L glucose at 37° C. for 45 minutes. After the incubation, the culture supernatant was changed to Buffer A (0.9 mL) containing a test compound at various concentrations and 2 mmol/L glucose, and the cells were further incubated at 37° C. for 15 minutes. […]

MIN6 cell [2] = test: Insulin secretion promoting activity for cultured β-cells, in the presence of 5 mmol/L glucose; assay type: cell-based; conditions: for Insulin secretion amount (ng/mL) Avg: 5 mmol/L glucose, None: 51.2; for secretion promoting action at low glucose concentration (in words): glucose at a low concentration (5 mmol/L)
Method: as §1
Separately, the effect of a compound on the insulin secretion in the presence of 5 mmol/L glucose was determined by measuring insulin amounts in cell culture supernatants collected as follows. MIN6 cells cultured on a 24-well plate were washed twice by using 1 mL of Buffer A containing 5 mmol/L glucose, and then the culture supernatant was changed to Buffer A (0.9 mL) containing a test compound at various concentrations and 5 mmol/L glucose. Then, the cells were incubated at 37° C. for 45 minutes (final glucose concentration: 5 mmol/L), and the culture supernatant was collected.
After the culture supernatant was diluted with a phosphate buffer containing 1% bovine serum albumin, 0.1% Tween 20, 0.12% disodium ethylenediaminetetraacetate (EDTA), and 0.1% sodium azide, antibody-reactive insulin secreted in the culture supernatant was qualified by enzyme immunoassay or radio immunoassay. The insulin level was indicated as the amount of human insulin (ng/mL). The results are indicated as average (avg) of 3 to 4 samples with standard error values (se).

SMILES | Insulin secretion amount (ng/mL) avg (MIN6 cell [1]; drug concentration 10 μmol/L) [ng/mL] | Insulin secretion amount (ng/mL) Avg (MIN6 cell [2]; drug concentration 10 μmol/L) [ng/mL] | secretion promoting action at low glucose concentration (in words) (MIN6 cell [2]) | Insulin secretion amount (ng/mL) avg (MIN6 cell [1]; drug concentration 0.1 μmol/L) [ng/mL] | Insulin secretion amount (ng/mL) Avg (MIN6 cell [2]; drug concentration 0.1 μmol/L) [ng/mL]
CC(C)[C@H]1CC[C@H](C(=O)N[C@H](Cc2ccccc2)C(=O)O)CC1 [AY4166] | 195.1 | 170.8 | showed marked secretion promoting action |  | 
COc1ccc(Cl)cc1C(=O)NCCc1ccc(S(=O)(=O)NC(=O)NC2CCCCC2)cc1 [Glibenclamide] |  |  | showed marked secretion promoting action | 177.8 | 156.8
